Reference: the supplement of paper PMC9663587

Tests used:
Assay in all cases: GRmax, 72 h; higher = less effect;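 further: breast cell lines in 384-well plates, nine doses across a 10^4 range, Dye Drop imaging of viable cells vs DMSO and time-zero plates, GR 0 means no net growth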
HCC1143 = tested on: HCC1143
EVSAT = tested on: EVSAT
CAL120 = tested on: CAL120
PDXHCI002 = tested on: PDXHCI002
MDAMB436 = tested on: MDAMB436
CAL51 = tested on: CAL51
UACC812 = tested on: UACC812
HCC1569 = tested on: HCC1569
HCC1954 = tested on: HCC1954
HCC1937 = tested on: HCC1937
SUM190PT = tested on: SUM190PT
HCC1187 = tested on: HCC1187
AU565 = tested on: AU565

| SMILES | GRmax, 72 h (HCC1143) [GR] | GRmax, 72 h (EVSAT) [GR] | GRmax, 72 h (CAL120) [GR] | GRmax, 72 h (PDXHCI002) [GR] | GRmax, 72 h (MDAMB436) [GR] | GRmax, 72 h (CAL51) [GR] | GRmax, 72 h (UACC812) [GR] | GRmax, 72 h (HCC1569) [GR] | GRmax, 72 h (HCC1954) [GR] | GRmax, 72 h (HCC1937) [GR] | GRmax, 72 h (SUM190PT) [GR] | GRmax, 72 h (HCC1187) [GR] | GRmax, 72 h (AU565) [GR] | GRmax, 72 h (HCC1143; main component drawn) [GR] | GRmax, 72 h (CAL120; main component drawn) [GR] | GRmax, 72 h (PDXHCI002; main component drawn) [GR] | GRmax, 72 h (MDAMB436; main component drawn) [GR] | GRmax, 72 h (CAL51; main component drawn) [GR] | GRmax, 72 h (HCC1954; main component drawn) [GR] | GRmax, 72 h (HCC1937; main component drawn) [GR] |
| --- | --- | --- | --- | --- | --- | --- | --- | --- | --- | --- | --- | --- | --- | --- | --- | --- | --- | --- | --- | --- |
| COc1ccc2c(c1)[C@]1(C[C@H]1c1ccc3c(/C=C/c4ccc(CN5C[C@@H](C)O[C@@H](C)C5)cc4)n[nH]c3c1)C(=O)N2 | 0.0518 | -0.0524 | 0.175 | 0.107 | -0.226 | 0.0084 | -0.135 | -0.0697 | -0.209 | -0.149 | 0.12 | -0.485 | -0.165 |  |  |  |  |  |  |  |
| COc1cccc(OCCCN)c1-c1cc(Nc2cnc(C#N)cn2)n[nH]1 | -0.117 | 0.713 | 0.317 | 0.705 | 0.0078 | 0.0443 | 0.528 | -0.0272 | -0.312 | 0.0059 | -0.101 | -0.498 | 0.0394 |  |  |  |  |  |  |  |
| CC(=O)Nc1cccc(-n2c(=O)n(C3CC3)c(=O)c3c(Nc4ccc(I)cc4F)n(C)c(=O)c(C)c32)c1 (max 1 µM) | -0.0225 | 0.939 | 0.415 | 0.642 | 0.557 | 0.706 | -0.119 | 0.522 | 0.229 | 0.689 | 0.744 | 0.76 | 1.01 |  |  |  |  |  |  |  |
| CCc1cnn2c(NCc3ccc[n+]([O-])c3)cc(N3CCCC[C@H]3CCO)nc12 (max 1 µM) | -0.253 | 0.0834 | -0.132 | -0.361 | -0.144 | -0.358 | -0.942 | -0.245 | -0.464 | -0.207 | -0.659 | -0.791 | -0.752 |  |  |  |  |  |  |  |
| CC(=O)c1c(C)c2cnc(Nc3ccc(N4CCNCC4)cn3)nc2n(C2CCCC2)c1=O (max 3.162 µM) | 0.282 | 0.646 | 0.669 | 0.277 | 1.06 | 0.361 | -0.142 | 0.983 | 0.526 | 1.08 | 0.347 | 0.646 | 0.177 |  |  |  |  |  |  |  |
| CCc1cncnc1N1CCN(Cc2nc3ccc(C(F)(F)F)cc3[nH]2)CC1 (max 10 µM) | 0.739 | 0.711 | 0.924 | 0.873 | 0.194 | 0.734 | -0.22 | 0.7 | 0.835 | 0.769 | 0.461 | 0.575 | 0.476 |  |  |  |  |  |  |  |
| CCCCOc1c(C(=O)c2c(F)cc(C)cc2F)c[nH]c2nncc1-2 (max 10 µM) | -0.0529 | 0.279 | 0.369 | 0.217 | 0.264 | 0.28 | -0.394 | 0.0899 | -0.0431 | -0.0492 | -0.0112 | 0.437 | -0.158 |  |  |  |  |  |  |  |
| CCN1CCN(Cc2ccc(Nc3ncc(F)c(-c4cc(F)c5nc(C)n(C(C)C)c5c4)n3)nc2)CC1 (max 10 µM) | -0.0787 | -0.545 | -0.141 | -0.677 | -0.333 | -0.464 | -0.603 | 0.116 | -0.505 | 0.302 | -0.582 | 0.0999 | -0.321 |  |  |  |  |  |  |  |
| CNc1nc(-c2ccc3c(N)n[nH]c3c2)cc(N2C[C@@H](C(=O)NC3CCCCC3)CC[C@H]2C)n1 (max 10 µM) | 0.742 | -0.049 | 0.786 | 0.867 | 0.811 | 0.794 | 0.166 | 0.673 | 0.733 | 0.585 | 0.236 | 0.504 | 0.391 |  |  |  |  |  |  |  |
| CO[C@@H](C)Cn1c(=O)n(C)c2cnc3ccc(-c4cncc(C(C)(C)O)c4)cc3c21 (max 10 µM) | -0.203 | -0.384 | 0.0419 | -0.0949 | 0.323 | -0.159 | -0.663 | -0.0783 | -0.346 | 0.0369 | -0.5 | -0.718 | -0.533 |  |  |  |  |  |  |  |
| Cc1nn(C)c(COc2ccc(N3CCN(S(=O)(=O)N(C)C)CC3)cc2)c1-c1cccc2c(CCCOc3cccc4ccccc34)c(C(=O)O)n(CCN3CCOCC3)c12 (max 10 µM) | 0.672 | 0.901 | 0.943 | 0.981 | 0.873 | 0.992 | 0.991 | 0.928 | 0.884 | 0.724 | 0.114 | 0.863 | 0.611 |  |  |  |  |  |  |  |
| CN(C)CC[C@H](CSc1ccccc1)Nc1ccc(S(=O)(=O)NC(=O)c2ccc(N3CCN(Cc4ccccc4-c4ccc(Cl)cc4)CC3)cc2)cc1[N+](=O)[O-] [ABT-737] (max 10 µM) | 0.376 | 0.697 | -0.434 | 0.146 | 0.815 | 0.876 | 0.329 | -0.406 | 0.496 | 0.269 | -0.475 | 0.492 | 0.261 |  |  |  |  |  |  |  |
| C=CCn1c(=O)c2cnc(Nc3ccc(N4CCN(C)CC4)cc3)nc2n1-c1cccc(C(C)(C)O)n1 [AZD1775] (max 10 µM) | -0.458 | -0.39 | -0.238 | -0.347 | -0.26 | -0.188 | -0.598 | -0.167 | -0.416 | -0.0795 | -0.197 | -0.729 | -0.485 |  |  |  |  |  |  |  |
| CNC(=O)c1cccc(-c2ccc3c(N4CCOC[C@@H]4C)nc(N4CCOC[C@@H]4C)nc3n2)c1 [AZD2014] (max 10 µM) | 0.182 | -0.21 | 0.206 | 0.489 | 0.519 | 0.201 | -0.585 | 0.0746 | 0.0889 | 0.366 | -0.514 | 0.227 | -0.0212 |  |  |  |  |  |  |  |
| NC1(C(=O)N[C@@H](CCO)c2ccc(Cl)cc2)CCN(c2nc[nH]c3nccc2-3)CC1 [AZD5363] (max 10 µM) | 0.769 | -0.441 | 0.806 | 1.08 | 0.728 | 0.565 | 0.485 | 0.0764 | 0.272 | 0.504 | 0.243 | 0.426 | 0.373 |  |  |  |  |  |  |  |
| C[C@@H]1COCCN1c1cc(C2([S@](C)(=N)=O)CC2)nc(-c2cc[nH]c3nccc2-3)n1 [AZD6738] (max 10 µM) | -0.0627 | 0.742 | 0.783 | 0.734 | 0.363 | 0.0335 | 0.305 | -0.0623 | 0.15 | 0.298 | -0.036 | -0.332 | 0.312 |  |  |  |  |  |  |  |
| NC(=O)Nc1cc(-c2cccc(F)c2)sc1C(=O)N[C@H]1CCCNC1 [AZD7762] (max 10 µM) | -0.369 | -0.319 | -0.495 | -0.582 | -0.281 | -0.519 | -0.8 | -0.411 | -0.398 | -0.362 | -0.341 | -0.691 | -0.597 |  |  |  |  |  |  |  |
| Cc1nc(NC(=O)N2CCC[C@H]2C(N)=O)sc1-c1ccnc(C(C)(C)C(F)(F)F)c1 [Alpelisib/BYL719] (max 10 µM) | 0.48 | 0.716 | 0.608 | 0.63 | 0.725 | 0.344 | -0.0521 | 0.369 | -0.341 | 0.658 | 0.532 | 0.608 | -0.472 |  |  |  |  |  |  |  |
| CN(C)C/C=C/C(=O)Nc1ccc(O[C@@H]2CCC[C@@H](Nc3ncc(Cl)c(-c4c[nH]c5ccccc45)n3)C2)cc1 [BSJ-01-175] (max 10 µM) | -0.449 | -0.512 | -0.272 | -0.297 | -0.598 | -0.368 | -0.92 | -0.762 | -0.652 | -0.603 | -0.545 | -0.827 | -0.777 |  |  |  |  |  |  |  |
| CC(=O)c1c(C)c2cnc(Nc3ccc(N4CCN(CCOCCOCCOCCNC(=O)COc5cccc6c5C(=O)N(C5CCC(=O)NC5=O)C6=O)CC4)cn3)nc2n(C2CCCC2)c1=O (stereo unspecified) [BSJ-03-123] (max 10 µM) | -0.0159 | 0.0652 | 0.239 | -0.0835 | -0.0126 | 0.146 | -0.312 | -0.03 | 0.0033 | 0.493 | -0.279 | -0.518 | -0.386 |  |  |  |  |  |  |  |
| CC(C)Nc1cc(-c2c[nH]c(C(=O)N[C@H](CO)c3cccc(Cl)c3)c2)c(Cl)cn1 [BVD523] (max 10 µM) | 0.0829 | 0.695 | 0.482 | 0.286 | 0.649 | 0.759 | 0.176 | 0.568 | 0.264 | 0.534 | 0.237 | 0.649 | 0.521 |  |  |  |  |  |  |  |
| Cc1c(N)nc([C@H](CC(N)=O)NC[C@H](N)C(N)=O)nc1C(=O)N[C@H](C(=O)N[C@H](C)[C@@H](O)[C@H](C)C(=O)N[C@H](C(=O)NCCc1nc(-c2nc(C(=O)NCCC[S+](C)C)cs2)cs1)[C@@H](C)O)[C@@H](OC1OC(CO)C(O)C(O)C1OC1OC(CO)C(O)C(OC(N)=O)C1O)c1cnc[nH]1 (stereo partly specified) [Bleomycin] (max 10 µM) |  |  |  |  |  |  |  |  |  |  |  |  |  | -0.208 | 0.0886 | -0.12 | -0.12 | -0.134 | -0.0884 | 0.139 |
| N.N.[Cl][Pt][Cl] [Cisplatin] (max 10 µM) | 0.0754 |  | 0.188 | -0.0985 | -0.0204 | -0.0329 |  |  | -0.0741 | 0.006 |  |  |  |  |  |  |  |  |  |  |
| COc1cc([C@@H]2c3cc4c(cc3[C@@H](O[C@@H]3O[C@@H]5CO[C@@H](C)O[C@H]5[C@H](O)[C@H]3O)[C@H]3COC(=O)[C@H]23)OCO4)cc(OC)c1O [Etoposide] (max 10 µM) | -0.166 |  | -0.166 | -0.179 | -0.157 | -0.21 |  |  | -0.265 | -0.118 |  |  |  |  |  |  |  |  |  |  |
| CC[C@@]1(O)C(=O)OCc2c1cc1n(c2=O)Cc2cc3c(CN(C)C)c(O)ccc3nc2-1 [Topotecan] (max 10 µM) | -0.43 |  | -0.336 | -0.701 | -0.14 | -0.53 |  |  | -0.401 | -0.428 |  |  |  |  |  |  |  |  |  |  |
